{"source": "patent US20220373536A1", "about": "“HIGH-CONTENT ANALYSIS METHOD” (priority 2019, published 2022)", "system": "plasma cells (target cells, CD138+; U-266 or NCI-H929)", "assay": "ICNP-based ADCC assay in microwells, NK cells against plasma cells / U-266 cells under anti-CD38 stimulation, time-lapse PI readout", "format": "cell-based", "excerpt": "EDTA bone marrow samples were collected from 13 patients with multiple myeloma (MM, 7 de novo and 6 relapses). 8 primary samples were processed through density centrifugation (Ficoll-Pacque; Merck) in order to obtain mononuclear cells while preserving the original composition of the effector (E) and target (T) cells, i.e., NK and plasma cells, respectively. 5 samples were processed with CD138 Antibody coupled to magnetic beads (Miltenyi Biotec) to obtain a population of white blood cells (WBC), a population which comprises NK cells and is depleted of plasma cells.\nThe resulting cells were co-cultured with U-266 or NCI-H929 cell lines as target cells. […]\nThe cells from primary or co-culture samples were seeded in 96-well plates, with a final concentration of 2×10^5 cells/well, with variable E:T ratios. […] Each experiment was analyzed by time lapse in fluorescence microscopy for up to 12 hours.\nThe images for said plurality of microwells are then acquired and, with a detection algorithm, the areas of interest, where each area of interest corresponds to a single cell, for each of said areas of interest, properties which comprise localization, the intensity of certain markers in each fluorescence channel, the cell area, the position of the center of gravity and the morphology are then measured. […]", "data": [{"substance": "Daratumumab", "values": [{"measurement": "plasma cell death with respect to plasma cell - NK cell distance", "setting": "10 μg/mL, 1,200 microwells, plasma cells in contact with NK cells, decreases as distance increases, FIG. 11E", "value": "maximum"}, {"measurement": "death rate of the plasma cells belonging to pattern 2 (spontaneous death or direct effect of the antibody)", "setting": "10 μg/mL, pattern 2 microwells (only plasma cells, no NK)", "value": 10.86, "unit": "%"}]}]}
